Results published in patent publication US12448388B2, “PRMT5 inhibitors and uses thereof” (Gilead Sciences, Inc., priority 2023, dated 2025).
Like-named read-outs stand apart in the source and are kept apart here.

Test system: HCT116 MTAP-deleted cell lines
Experiment: Cell viability assay (CellTiter-Glo, 7 days), HCT116 MTAP-deleted
Format: cell-based
Settings: Homo sapiens, HCT-116, HCT116 MTAP-deleted, class symbols, read-out: CC50
Outline: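 Dose-response, PRMT5 inhibitors from DMSO serial dilution, pre-spotted; cells seeded onto compound plates. 7 d, 37 °C/5% CO2/90% RH. Readout: CTG luminescence → CC50.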

Cc1ncc2c(N)nc3ccc(C(=O)N(C)[C@@H]4COc5cc(C(F)(F)F)c(F)cc54)cc3n12 [Ff-352, (S)-4-amino-N-(5-fluoro-6-(trifluoromethyl)-2,3-dihydrobenzofuran-3-yl)-N,1-dimethylimidazo[1,5-a]quinoxaline-8-carboxamide]
CC50 (cell viability): < 100 nM

Nc1nc2cc(F)c(C(=O)N3CCO[C@@H]4Cc5cc(-c6cnn(C(F)(F)F)c6)ccc5[C@@H]43)cc2n2cncc12 [Ff-234, (4-amino-7-fluoroimidazo[1,5-a]quinoxalin-8-yl)((4aS,9aR)-7-(1-(trifluoromethyl)-1H-pyrazol-4-yl)-2,3,9,9a-tetrahydroindeno[2,1-b][1,4]oxazin-4(4aH)-yl)methanone]
CC50 (cell viability): 100 to 1000 nM

CN(C(=O)c1cc2c(cc1F)nc(N)c1cncn12)[C@@H]1COc2cc(C34CC(F)(C3)C4)ccc21 [Ff-453, 4-amino-7-fluoro-N-[(3S)-6-(3-fluoro-1-bicyclo[1.1.1]pentanyl)-2,3-dihydrobenzofuran-3-yl]-N-methyl-imidazo[1,5-a]quinoxaline-8-carboxamide]
CC50 (cell viability assay): < 100 nM

Nc1nc2ccc(C(=O)N3CCC[C@@H]4Oc5cc(OC(F)(F)F)ccc5[C@@H]43)cc2n2cncc12 [Ff-383, (4-aminoimidazo[1,5-a]quinoxalin-8-yl)((4aS,9bS)-7-(trifluoromethoxy)-3,4,4a,9b-tetrahydrobenzofuro[3,2-b]pyridin-1(2H)-yl)methanone]
CC50 (cell viability assay): < 100 nM

COc1cc(-c2cnn(C(F)F)c2)ccc1CN(C)C(=O)c1cc2c(cc1F)nc(N)c1cncn12 [Ff-553, 4-amino-N-(4-(1-(difluoromethyl)-1H-pyrazol-4-yl)-2-methoxybenzyl)-7-fluoro-N-methylimidazo[1,5-a]quinoxaline-8-carboxamide]
CC50 (cell viability assay): 100 to 1000 nM

CN(C(=O)c1cc2c(cc1F)nc(N)c1cncn12)C1CCc2nc(Cl)ccc21 (stereo not shown) [Ff-208, 4-amino-N-(2-chloro-6,7-dihydro-5H-cyclopenta[b]pyridin-5-yl)-7-fluoro-N-methylimidazo[1,5-a]quinoxaline-8-carboxamide]
CC50 (cell viability): 100 to 1000 nM

CN(C(=O)c1cc2c(cc1F)nc(N)c1cncn12)[C@@H]1COc2cc(-c3csc(C(F)F)n3)ccc21 [Ff-237, (S)-4-amino-N-(6-(2-(difluoromethyl)thiazol-4-yl)-2,3-dihydrobenzofuran-3-yl)-7-fluoro-N-methylimidazo[1,5-a]quinoxaline-8-carboxamide]
CC50 (cell viability): < 100 nM

Nc1nc2cc(F)c(C(=O)N3CCCC4OCc5cc(C(F)(F)F)ccc5C43)cc2n2cncc12 (stereo not shown) [Ff-43, (4-amino-7-fluoroimidazo[1,5-a]quinoxalin-8-yl)(8-(trifluoromethyl)-2,3,4,4a,6,10b-hexahydro-1H-isochromeno[4,3-b]pyridin-1-yl)methanone]
CC50 (cell viability): < 100 nM

CN(C(=O)c1cc2c(cc1F)nc(N)c1cncn12)[C@@H]1COc2c1ccc(C(F)(F)F)c2F [Ff-354, (S)-4-amino-7-fluoro-N-(7-fluoro-6-(trifluoromethyl)-2,3-dihydrobenzofuran-3-yl)-N-methylimidazo[1,5-a]quinoxaline-8-carboxamide]
CC50 (cell viability): < 100 nM

CN(C(=O)c1cc2c(cc1F)nc(N)c1cncn12)[C@@H]1COc2cc(-c3csc(C(F)(F)F)n3)ccc21 [Ff-231, (S)-4-amino-7-fluoro-N-methyl-N-(6-(2-(trifluoromethyl)thiazol-4-yl)-2,3-dihydrobenzofuran-3-yl)imidazo[1,5-a]quinoxaline-8-carboxamide]
CC50 (cell viability): 100 to 1000 nM

CC(C)c1ccc2c(c1)OC[C@H]2N(C)C(=O)c1cc2c(cc1F)nc(N)c1cncn12 [Ff-479, (S)-4-amino-7-fluoro-N-(6-isopropyl-2,3-dihydrobenzofuran-3-yl)-N-methylimidazo[1,5-a]quinoxaline-8-carboxamide]
CC50 (cell viability assay): < 100 nM

Nc1nc2cc(F)c(C(=O)N3CCC[C@@H]4Oc5cc(C(F)(F)F)ccc5[C@@H]43)cc2n2c(Cl)ncc12 (single isomer, unassigned) [Ff-646]
CC50 (cell viability assay): < 100 nM

Nc1nc2cc(F)c(C(=O)N3CC4CCC(O4)C3c3ccc(C(F)(F)F)cn3)cc2n2cncc12 (stereo not shown) [Ff-511, (4-amino-7-fluoroimidazo[1,5-a]quinoxalin-8-yl)(2-(5-(trifluoromethyl)pyridin-2-yl)-8-oxa-3-azabicyclo[3.2.1]octan-3-yl)methanone]
CC50 (cell viability assay): 100 to 1000 nM

CN(C(=O)c1cc2c(cc1C1CC1)nc(N)c1cncn12)[C@@H]1COc2cc(C(F)(F)F)ccc21 [Ff-614, (S)-4-amino-7-cyclopropyl-N-methyl-N-(6-(trifluoromethyl)-2,3-dihydrobenzofuran-3-yl)imidazo[1,5-a]quinoxaline-8-carboxamide]
CC50 (cell viability assay): < 100 nM

Cc1ncn2c1c(N)nc1cnc(C(=O)N3CCC[C@@H]4Oc5cc(C(F)(F)F)c(F)cc5[C@@H]43)cc12 [Ff-116, (4-amino-3-methylimidazo[1,5-a]pyrido[3,4-e]pyrazin-8-yl)((4aS,9bS)-8-fluoro-7-(trifluoromethyl)-3,4,4a,9b-tetrahydrobenzofuro[3,2-b]pyridin-1(2H)-yl)methanone]
CC50 (cell viability): < 100 nM

CN(C(=O)c1cc2c(cc1F)nc(N)c1cncn12)C1COc2cc(Cl)c(Br)cc21 (stereo not shown) [Ff-608, 4-amino-N-(5-bromo-6-chloro-2,3-dihydrobenzofuran-3-yl)-7-fluoro-N-methylimidazo[1,5-a]quinoxaline-8-carboxamide]
CC50 (cell viability assay): < 100 nM

Nc1nc2cc(F)c(C(=O)N3CCO[C@@H]4Cc5nc(C(F)(F)F)ccc5[C@@H]43)cc2n2cncc12 (racemic) [Ff-88, Rac-(4-amino-7-fluoroimidazo[1,5-a]quinoxalin-8-yl)((4aR,9bS)-7-(trifluoromethyl)-2,3,5,9b-tetrahydropyrido[3′,2′:3,4]cyclopenta[1,2-b][1,4]oxazin-1(4aH)-yl)methanone]
CC50 (cell viability): 100 to 1000 nM

C[C@@H]1C[C@@H]2Oc3cc(C(F)(F)F)c(F)cc3[C@@H]2N(C(=O)c2cc3c(cn2)nc(N)c2cncn23)C1 [Ff-261, (4-aminoimidazo[1,5-a]pyrido[3,4-e]pyrazin-8-yl)((3R,4aS,9bS)-8-fluoro-3-methyl-7-(trifluoromethyl)-3,4,4a,9b-tetrahydrobenzofuro[3,2-b]pyridin-1(2H)-yl)methanone]
CC50 (cell viability): < 100 nM

Nc1nc2cc(F)c(C(=O)N3CCO[C@@H]4Cc5cc(OC(F)F)ccc5[C@@H]43)cc2n2cncc12 [Fg-24, (4-amino-7-fluoroimidazo[1,5-a]quinoxalin-8-yl)((4aS,9aR)-7-(difluoromethoxy)-2,3,9,9a-tetrahydroindeno[2,1-b][1,4]oxazin-4(4aH)-yl)methanone]
CC50 (cell viability assay): < 100 nM

Nc1nc2cc(F)c(C(=O)N3CCOC[C@H]3c3ccc(OC(F)(F)F)cc3)cc2n2cncc12 (single isomer, unassigned) [Ff-556]
CC50 (cell viability assay): 100 to 1000 nM

Nc1nc2cnc(C(=O)N3CCC4(CC4)[C@@H]4Oc5cc(C(F)(F)F)ccc5[C@@H]43)cc2n2cncc12 [Ff-677, (4-aminoimidazo[1,5-a]pyrido[3,4-e]pyrazin-8-yl)((4aS,9bS)-7-(trifluoromethyl)-2,3,4a,9b-tetrahydro-1H-spiro[benzofuro[3,2-b]pyridine-4,1′-cyclopropan]-1-yl)methanone]
CC50 (cell viability assay): < 100 nM

Nc1nc2cc(F)c(C(=O)N3CCO[C@@H]4Cc5cc(C(F)(F)F)cc(F)c5[C@@H]43)cc2n2cncc12 [Ff-539, (4-amino-7-fluoroimidazo[1,5-a]quinoxalin-8-yl)((4aS,9aR)-5-fluoro-7-(trifluoromethyl)-2,3,9,9a-tetrahydroindeno[2,1-b][1,4]oxazin-4(4aH)-yl)methanone]
CC50 (cell viability assay): < 100 nM
